Test results published in patent US11891386B2, “Indole compounds and their use” (ARIAGEN, INC., priority 2017, dated 2024).
Read-outs that look alike come from different tables or passages of the source.

Experiments:
[1] = tested on: CYP1A1 in mouse Hepal-6 cells; experiment: EROD assay (7-ethoxy-resorufin-O-deethylase), mouse Hepa1-6 cells; type: cell-based
Procedure: (§1) CYP1A1 induction is under the control of the AhR signaling pathway. This Example describes an in vitro assay (7-ethoxy-resorufin-O-deethylase (EROD) assay) that evaluated the AhR modulating activities of the indole compounds described herein. In this assay, the indole compounds were incubated with human HepG2 cells or mouse Hepal-6 cells. The activity of CYP1A1 in the cells was measured by the conversion of substrate 7-ethoxyresorufin, with the readout being a fluorescence signal associated with the conversion product. The EC50 values of the indole compounds as well as the maximum […] induced by them in the assay were determined.
(§2) Human HepG2 cells were obtained from Sigma Aldrich (Catalog 85011430-1VL). Mouse Hepal-6 cells also were obtained from Sigma Aldrich (Catalog 92110305-1V).
(§3) Human HepG2 and Mouse Hepal-6 cells were grown to 60-80% confluency in tissue culture flasks, lifted with non-enzymatic cell dissociation solution (cell stripper), seeded in a 384-well plate at 5,000 cells per well, treated with the test compounds, and incubated for 20 hours overnight at 37° C. The treatment medium was removed and a solution of substrate 7-ethoxyresorufin (ETX) was added to initiate the reaction. The plate was incubated at 37° C. for 30 minutes. The reaction was subsequently terminated by adding tempered methanol. Fluorescent emission was measured at 590 nm with excitation at 530 nm in a FLEXSTATION III instrument (Molecular Devices).

[2] = tested on: CYP1A1 in human HepG2 cells; experiment: EROD assay (7-ethoxy-resorufin-O-deethylase), human HepG2 cells; type: cell-based; set-up: key to activity group based on EC50 values, in the order of increasing activity: (1) active; (2) more active; (3) most active; details: for activity group based on EC50 values, in the order of increasing activity: human EROD assay, oxadiazole derivatives of ITE
Procedure: as §1, §2, §3

[3] = tested on: EMT-6 syngeneic mouse tumor model (breast cancer); experiment: Anti-tumor activity, EMT-6 syngeneic mouse tumor model; type: in vivo; details: for anti-tumor potency, in words: EMT-6 model, 40 mpk; for inhibition in vivo at 40 mg/kg: Mus musculus, EMT6, ip, read-out: TGI (tumor growth inhibition)
Procedure: This example describes in vivo studies that evaluated the anti-cancer efficacy of the disclosed indole compounds in syngeneic mouse tumor models. Mice implanted subcutaneously with four types of cancer cells were treated with test indole compounds or vehicle controls as described below.
A monolayer culture of tumor cells was maintained in vitro in DMEM or RPMI1640 medium supplemented with 10% fetal bovine serum at 37° C. in an atmosphere of 5% CO2. Cells in exponential growth phase were harvested and quantitated by cell counter before tumor inoculation. The cell lines used are described in the table below.
Four subcutaneous syngeneic mouse tumor models were generated by innoculating female BALB/C or C57BL/6 mice with cancer cells at their right lower or front flank as detailed in the table below:
Each mouse was inoculated subcutaneously with tumor cells in 0.1 mL of PBS. Treatments were started when the mean tumor size reached approximately 80-120 mm^3 (around 100 mm^3). The administration of the indole compounds and the animal number in each study group are shown in the study design. The date of tumor cell inoculation was denoted as day 0.
The indole compounds were dissolved in DMSO at the final concentration of 26.7 mg/ml and stored at room temperature.
Randomization of animals was started when the mean tumor size reached approximately 90 mm^3 to form the mouse study groups. The randomization was performed based on “Matched distribution” method using the multi-task method (StudyDirector™ software, version 3.1.399.19)/randomized block design. The mouse groups (ten in each group) were treated with vehicle (DMSO) or the indole compounds at a dose of 40 mg/kg by i.p. injection, QD for 28 days or longer.
After tumor cell inoculation, the mice were checked daily for morbidity and mortality. During routine monitoring, the mice were checked for tumor growth and any effects of the treatment on behavior such as mobility, food and water consumption, body weight gain/loss (body weights were measured twice per week after randomization), eye/hair matting, and any other abnormalities. Mortality and observed clinical signs were recorded for individual mice in detail.
Tumor volumes were measured twice per week in two dimensions using a caliper, and the volume was expressed in mm^3 using the formula: V=(L×W×W)/2, where V is tumor volume, L is tumor length (the longest tumor dimension) and W is tumor width (the longest tumor dimension perpendicular to L). Dosing as well as tumor and body weight measurements was conducted in a Laminar Flow Cabinet. The body weights and tumor volumes were measured by using StudyDirector™ software (version 3.1.399.19). Dosing Holiday
Tumor growth inhibition percentage (TGI %) is an indicator for antitumor activity of a drug compound, and expressed as: TGI (%)=100×(1−T/C), where T and C are the mean tumor volume (or weight) of the treated and control groups, respectively, on a given day. Statistical analysis of the difference in mean tumor volume (MTV) among the groups was conducted using the data collected on the day when the MTV of the vehicle group reached the humane endpoints, so that TGI could be derived for all or most mice enrolled in the study.
In Studies 1 and 3, the anti-tumor activity of ARI-001 in parallel with ARI-002 at 160 mg/kg (mpk), and the anti-tumor activity of ARI-087 in parallel with ARI-002 at 40 mpk were assessed using the EMT-6, Pan02, A20, and LL/2 models. Because EMT-6 provides a fast-growing model that enables relatively quick differentiation of performance between compounds, this syngeneic mouse tumor model was chosen for the other studies. In Study 2, the anti-tumor activity of ARI-002 was compared with that of ARI-004 at 10, 40, and 80 mpk. In Study 4, the anti-tumor activity of ARI-087 was compared with that of ARI-140. In Study 5, the anti-tumor activity of ARI-087 was evaluated in parallel with ARI-143 and ARI-149 at 40 mpk. […]

[4] = 624 h, Study 6, EMT-6, 40 mpk i.p. QD, D26
[5] = 720 h, Study 5, EMT-6, 40 mpk i.p. QD, D30

SMILES | activity in the mouse EROD assay, in words [1] | activity in the human EROD assay compared to ARI-001 / ARI-002, in words ([2]; human HepG2 cells) | activity group based on EC50 values, in the order of increasing activity [2] | anti-tumor potency, in words [3] | inhibition in vivo at 40 mg/kg [3, 4] [%] | inhibition in vivo at 40 mg/kg [3, 5] [%] | EC50 ([1]; EROD assay, 20 hours treatment) [nM] | EC50 ([2]; EROD assay, human HepG2 cells, 20 hours treatment) [nM]
CNC(=O)c1csc(C(=O)c2c[nH]c3ccc(Cl)cc23)n1 [ARI-049, 2-(5-chloro-1H-indole-3-carbonyl)-N-methylthiazole-4-carboxamide] | less active | less active |  |  |  |  |  | 
COC(=O)c1csc(C(=O)c2c[nH]c3ccc(Cl)cc23)n1 [ARI-055, methyl 2-(5-chloro-1H-indole-3-carbonyl)thiazole-4-carboxylate] | less active | less active |  |  |  |  |  | 
O=C(c1nc(-c2nnco2)cs1)c1c[nH]c2ccccc12 [ARI-056, (4-(1,3,4-oxadiazol-2-yl)thiazol-2-yl)(1H-indol-3-yl)methanone] |  | significantly more (about 4 to 900 times more) active than ARI-001 | active | less anti-tumor potency than ARI-087 | 34.3 |  |  | 
Cc1nnc(-c2csc(C(=O)c3c[nH]c4ccccc34)n2)o1 [ARI-060, (1H-indol-3-yl)(4-(5-methyl-1,3,4-oxadiazol-2-yl)thiazol-2-yl)methanone] |  | significantly more (about 4 to 900 times more) active than ARI-001 | active |  |  |  |  | 
CNC(=O)c1csc(C(=O)c2c[nH]c3ccc(F)cc23)n1 [ARI-065, 2-(5-fluoro-1H-indole-3-carbonyl)-N-methylthiazole-4-carboxamide] | less active | less active |  |  |  |  |  | 
COC(=O)c1csc(C(=O)c2c[nH]c3ccc(F)cc23)n1 [ARI-066, methyl 2-(5-fluoro-1H-indole-3-carbonyl)thiazole-4-carboxylate] | less active | less active |  |  |  |  |  | 
Nc1nnc(-c2csc(C(=O)c3c[nH]c4ccccc34)n2)s1 [ARI-090, (4-(5-amino-1,3,4-thiadiazol-2-yl)thiazol-2-yl)(1H-indol-3-yl)methanone] |  | significantly more (about 4 to 900 times more) active than ARI-001 | more active | less anti-tumor potency than ARI-087 | 30.1 |  |  | 
Nc1nnc(-c2csc(C(=O)c3c[nH]c4cc(Cl)c(Cl)cc34)n2)o1 [ARI-120, (4-(5-amino-1,3,4-oxadiazol-2-yl)thiazol-2-yl)(5,6-dichloro-1H-indol-3-yl)methanone] | most active among the tested oxadiazole compounds | significantly more (about 4 to 900 times more) active than ARI-001 | most active | less anti-tumor potency than ARI-087 |  | 27.2 |  | 
CCC(=O)c1csc(C(=O)c2c[nH]c3cccc(F)c23)n1 [ARI-142, 1-(2-(4-fluoro-1H-indole-3-carbonyl)thiazol-4-yl)propan-1-one] |  | less active than ARI-002 |  |  |  |  | 12.8 | 64.8
NCc1nc(-c2csc(C(=O)c3c[nH]c4c(F)cccc34)n2)no1 [ARI-146, (4-(5-(aminomethyl)-1,2,4-oxadiazol-3-yl)thiazol-2-yl)(7-fluoro-1H-indol-3-yl)methanone] |  |  |  | less anti-tumor potency than ARI-087 |  | 23.2 |  | 
Nc1nnc(-c2csc(C(=O)c3c[nH]c4ccc(F)cc34)n2)o1 [ARI-148, (4-(5-amino-1,3,4-oxadiazol-2-yl)thiazol-2-yl)(5-fluoro-1H-indol-3-yl)methanone] |  | significantly more (about 4 to 900 times more) active than ARI-001 | more active | less anti-tumor potency than ARI-087 |  | 4.8 |  | 
